In patent US5070210A, “Novel ketenimines as intermediates for insecticides” (ICI Americas Inc., priority 1990, dated 1991):

Key:
Type in all cases: in vivo
[1] = test system: Tobacco Budworm [Heliothis virescens (Fabricius)] eggs; assay: Tobacco budworm egg test; conditions: 2-day old eggs, percent in solution
Description: (§1) The compounds in Tables 1 and 2 above were tested for insecticidal activity using the following testing procedures. LC50 values, based on the results of these tests and calculated according to dosage-mortality curves, are expressed in Table 3.
Tobacco Budworm [Heliothis virescens (Fabricius)]:
(b). Eggs: Paper towel patches of 2-day old eggs of the tobacco budworm were dipped in acetone solutions of the test compound and placed in petri dishes containing a portion of larval rearing medium. Treated eggs were maintained at 78° F. and mortality was recorded after all control eggs had hatched and the young larvae were feeding on the media. Test concentrations ranged from 0.1% downward. The LC-50 value is expressed below in Table 3 under the heading "TBW-E" in terms of percent of the test compound in the solution.

[2] = test system: Cabbage Looper [Trichoplusia ni (Hubner)]; assay: Cabbage looper insecticidal test; conditions: second-instar larvae, percent in solution; 3-5 days
Description: as §1
Cabbage Looper [Trichoplusia ni (Hubner)]:
Test compounds were diluted in a 50-50 acetone-water solution. Cotyledons of hyzini squash (Calabacita abobrinha), approximately 1×1.5 inches, were immersed in the test solutions for 2-3 seconds and placed on a wire screen to dry. The dried leaves were placed in petri dishes containing a moistened piece of filter paper and infested with 5 second-instar cabbage looper larvae. The dishes were placed in a high humidity chamber. Mortality of the larvae was recorded 3-5 days later. Test concentrations ranged from 0.1% downward. The LC-50 value is expressed below in Table 3 under the heading "CL" in terms of percent of the test compound in solution.

[3] = test system: Housefly [Musca domestica]; assay: Housefly insecticidal test; conditions: μg per 25 female flies; mortality after 48 hours
Description: as §1
Housefly [Musca domestica]:
Test compounds were diluted in acetone and aliquots pipetted onto the bottom of aluminum dishes. To ensure even spreading of the chemical on the bottom of the dishes, 1 ml of acetone containing 0.01% peanut oil was also added to each dish. After all solvents had evaporated, the dishes were placed in circular cardboard cages containing 25 female houseflies, 1-2 days old. The cages were covered on the bottom with cellophane and on the top with tulle netting, and each contained a sugar-water saturated cotton plug for maintenance of the flies. Mortality was recorded after 48 hours. Test levels ranged from 100 μg/25 female houseflies downward. The LC-50 value is expressed below in Table 3 under the heading "HF", in terms of μg of the test compound per 25 female flies.

For CC(C)(C)C(=Nc1cccc(Cl)c1)OCc1cccc(Oc2ccccc2)c1 [Compound 12], the “LC50, TBW, E (TBW-E)” value [1] was over 0.1%, the “LC50, CL” value [2] was 0.008% and the “LC50, HF” value [3] was over 100 µg.
With CC1CC1C(=Nc1ccc(Cl)cc1)OCc1cccc(Oc2ccccc2)c1 (stereo not shown) [Compound 15] the “LC50, TBW, E (TBW-E)” value [1] was over 0.1%, the “LC50, CL” value [2] was 0.025% and the “LC50, HF” value [3] was over 100 µg.
For CC(C)C(=Nc1cc(Cl)c(Cl)cc1Cl)OCc1cccc(Oc2ccccc2)c1 [Compound 18], the “LC50, TBW, E (TBW-E)” value [1] was 0.09%, the “LC50, CL” value [2] was 0.008% and the “LC50, HF” value [3] was over 100 µg.
In the case of CC(C)C(=Nc1c(Cl)cc(Cl)cc1Cl)OCc1cccc(Oc2ccccc2)c1 [Compound 19], the “LC50, TBW, E (TBW-E)” value [1] is reported as over 0.1%, the “LC50, CL” value [2] is reported as under 0.1% and the “LC50, HF” value [3] is reported as over 100 µg.
With COC(C)C(=Nc1ccc(Cl)cc1)OCc1cccc(Oc2ccccc2)c1 (stereo not shown) [Compound 22] the “LC50, TBW, E (TBW-E)” value [1] was 0.08%, the “LC50, CL” value [2] was 0.004% and the “LC50, HF” value [3] was 15 µg.
Clc1cccc(N=C(OCc2cccc(Oc3ccccc3)c2)C2CC2)c1 [Compound 24] was tested, and the “LC50, TBW, E (TBW-E)” value [1] was 0.1%, the “LC50, CL” value [2] was 0.005% and the “LC50, HF” value [3] was 25 µg.
With CCC(C)C(=Nc1ccc(Cl)cc1)OCc1cccc(Oc2ccccc2)c1 (stereo not shown) [Compound 26] the “LC50, TBW, E (TBW-E)” value [1] was over 0.1%, the “LC50, CL” value [2] was 0.007% and the “LC50, HF” value [3] was over 100 µg.
With CC(Cl)C(=Nc1ccc(Cl)c(Cl)c1)OCc1cccc(Oc2ccccc2)c1 (stereo not shown) [Compound 27] the “LC50, TBW, E (TBW-E)” value [1] was over 0.1%, the “LC50, CL” value [2] was 0.04% and the “LC50, HF” value [3] was over 100 µg.
For CCC(=Nc1cccc(Cl)c1Cl)OCc1cccc(Oc2ccccc2)c1 [Compound 28], the “LC50, TBW, E (TBW-E)” value [1] was over 0.1%, the “LC50, CL” value [2] was 0.009% and the “LC50, HF” value [3] was over 100 µg.
With CCC(=Nc1ccc(Cl)c(Cl)c1)OCc1cccc(Oc2ccccc2)c1 [Compound 36] the “LC50, TBW, E (TBW-E)” value [1] was over 0.1%, the “LC50, CL” value [2] was 0.024% and the “LC50, HF” value [3] was 20 µg.
With CCCC(=Nc1ccc(Cl)c(Cl)c1)OCc1cccc(Oc2ccccc2)c1 [Compound 38] the “LC50, TBW, E (TBW-E)” value [1] was 0.05%, the “LC50, CL” value [2] was 0.006% and the “LC50, HF” value [3] was 33 µg.
For CCC(C)C(=Nc1ccc(Cl)c(Cl)c1)OCc1cccc(Oc2ccccc2)c1 (stereo not shown) [Compound 39], the “LC50, TBW, E (TBW-E)” value [1] was over 0.1%, the “LC50, CL” value [2] was 0.0023% and the “LC50, HF” value [3] was over 100 µg.
For CC(C)C(=Nc1ccc(Cl)c(Cl)c1)OCc1cccc(Oc2cccc(F)c2)c1 [Compound 40], the “LC50, TBW, E (TBW-E)” value [1] was 0.08%, the “LC50, CL” value [2] was 0.0025% and the “LC50, HF” value [3] was 36 µg.
In the case of CC(C)(C)C(=Nc1ccc(F)cc1)OCc1cccc(Oc2ccccc2)c1 [Compound 48], the “LC50, TBW, E (TBW-E)” value [1] is reported as over 0.05%, the “LC50, CL” value [2] is reported as 0.03% and the “LC50, HF” value [3] is reported as over 100 µg.
In the case of CC(C)C(=Nc1cc(F)ccc1F)OCc1cccc(Oc2ccccc2)c1 [Compound 56], the “LC50, TBW, E (TBW-E)” value [1] is reported as over 0.05%, the “LC50, CL” value [2] is reported as 0.01% and the “LC50, HF” value [3] is reported as 91 µg.
With CC(C)C(=Nc1cc(F)c(F)cc1F)OCc1cccc(Oc2ccccc2)c1 [Compound 58] the “LC50, TBW, E (TBW-E)” value [1] was 0.06%, the “LC50, CL” value [2] was 0.002% and the “LC50, HF” value [3] was 16 µg.
With CCC(=Nc1ccc(F)cc1F)OCc1cccc(Oc2ccccc2)c1 [Compound 59] the “LC50, TBW, E (TBW-E)” value [1] was over 0.1%, the “LC50, CL” value [2] was 0.02% and the “LC50, HF” value [3] was 25 µg.
In the case of COc1cc(N=C(OCc2cccc(Oc3ccccc3)c2)C(C)C)cc(C(F)(F)F)c1 [Compound 76], the “LC50, TBW, E (TBW-E)” value [1] is reported as 0.05%, the “LC50, CL” value [2] is reported as 0.002% and the “LC50, HF” value [3] is reported as 20 µg.
CC(C)C(=Nc1cc(C(F)(F)F)cc(C(F)(F)F)c1)OCc1cccc(Oc2ccccc2)c1 [Compound 78] was tested, and the “LC50, TBW, E (TBW-E)” value [1] was over 0.1%, the “LC50, CL” value [2] was 0.0025% and the “LC50, HF” value [3] was over 100 µg.
In the case of CC(C)C(=Nc1ccc(Br)cc1F)OCc1cccc(Oc2ccccc2)c1 [Compound 79], the “LC50, TBW, E (TBW-E)” value [1] is reported as 0.05%, the “LC50, CL” value [2] is reported as 0.003% and the “LC50, HF” value [3] is reported as 6 µg.
In the case of CC(C)C(=Nc1cc(C(F)(F)F)ccc1F)OCc1cccc(Oc2ccccc2)c1 [Compound 84], the “LC50, TBW, E (TBW-E)” value [1] is reported as 0.1%, the “LC50, CL” value [2] is reported as 0.006% and the “LC50, HF” value [3] is reported as 93 µg.
With FC(F)(F)c1cccc(N=C(OCc2cccc(Oc3ccccc3)c2)C2CC2)c1 [Compound 86] the “LC50, TBW, E (TBW-E)” value [1] was over 0.1%, the “LC50, CL” value [2] was 0.013% and the “LC50, HF” value [3] was 65 µg.
Cc1cc(N=C(OCc2cccc(Oc3ccccc3)c2)C(C)C)ccc1F [Compound 87] was tested, and the “LC50, TBW, E (TBW-E)” value [1] was 0.03%, the “LC50, CL” value [2] was 0.004% and the “LC50, HF” value [3] was 5 µg.
For Cc1ccc(Cl)c(N=C(OCc2cccc(Oc3ccccc3)c2)C(C)C)c1 [Compound 93], the “LC50, TBW, E (TBW-E)” value [1] was over 0.1%, the “LC50, CL” value [2] was 0.005% and the “LC50, HF” value [3] was 64 µg.
With Cc1ccc(N=C(OCc2cccc(Oc3ccccc3)c2)C(C)C)c(Cl)c1 [Compound 94] the “LC50, TBW, E (TBW-E)” value [1] was 0.075%, the “LC50, CL” value [2] was 0.0045% and the “LC50, HF” value [3] was 44 µg.
COc1cc(N=C(OCc2cccc(Oc3ccccc3)c2)C(C)C)c(OC)cc1Cl [Compound 99] was tested, and the “LC50, TBW, E (TBW-E)” value [1] was over 0.1%, the “LC50, CL” value [2] was 0.016% and the “LC50, HF” value [3] was over 100 µg.
With COc1ccc(OC)c(N=C(OCc2cccc(Oc3ccccc3)c2)C(C)C)c1Cl [Compound 100] the “LC50, TBW, E (TBW-E)” value [1] was over 0.1%, the “LC50, CL” value [2] was 0.05% and the “LC50, HF” value [3] was 100 µg.
For CCSc1ccc(N=C(OCc2cccc(Oc3ccccc3)c2)C(C)C)cc1Cl [Compound 103], the “LC50, TBW, E (TBW-E)” value [1] was over 0.1%, the “LC50, CL” value [2] was 0.015% and the “LC50, HF” value [3] was over 100 µg.
With CCOC(=O)c1ccc(N=C(OCc2cccc(Oc3ccccc3)c2)C(C)C)cc1Cl [Compound 104] the “LC50, TBW, E (TBW-E)” value [1] was over 0.1%, the “LC50, CL” value [2] was 0.004% and the “LC50, HF” value [3] was over 100 µg.
In the case of CC(C)(C)C(=Nc1ccc(Cl)c([N+](=O)[O-])c1)OCc1cccc(Oc2ccccc2)c1 [Compound 105], the “LC50, TBW, E (TBW-E)” value [1] is reported as over 0.1%, the “LC50, CL” value [2] is reported as 0.018% and the “LC50, HF” value [3] is reported as over 100 µg.
CC(C)(C)C(=Nc1ccc(Br)c(Cl)c1)OCc1cccc(Oc2ccccc2)c1 [Compound 106] was tested, and the “LC50, TBW, E (TBW-E)” value [1] was over 0.1%, the “LC50, CL” value [2] was 0.014% and the “LC50, HF” value [3] was over 100 µg.
Cc1ccc(N=C(OCc2cccc(Oc3ccccc3)c2)C(C)(C)C)cc1Cl [Compound 107] was tested, and the “LC50, TBW, E (TBW-E)” value [1] was over 0.1%, the “LC50, CL” value [2] was 0.007% and the “LC50, HF” value [3] was over 100 µg.
Cc1cc(Cl)ccc1N=C(OCc1cccc(Oc2ccccc2)c1)C(C)(C)C [Compound 109] was tested, and the “LC50, TBW, E (TBW-E)” value [1] was over 0.1%, the “LC50, CL” value [2] was 0.002% and the “LC50, HF” value [3] was over 100 µg.
In the case of COc1ccc(N=C(OCc2cccc(Oc3ccc(F)cc3)c2)C(C)C)cc1Cl [Compound 110], the “LC50, TBW, E (TBW-E)” value [1] is reported as 0.04%, the “LC50, CL” value [2] is reported as 0.007% and the “LC50, HF” value [3] is reported as 26 µg.
CC(C)(Cl)C(=Nc1ccc(Cl)c2ccccc12)OCc1cccc(Oc2ccccc2)c1 [Compound 111] was tested, and the “LC50, TBW, E (TBW-E)” value [1] was over 0.1%, the “LC50, CL” value [2] was 0.1% and the “LC50, HF” value [3] was over 100 µg.
In the case of CC(C)C(=Nc1cccc(Oc2ccccn2)c1)OCc1cccc(Oc2ccccc2)c1 [Compound 114], the “LC50, CL” value [2] is reported as under 0.1% and the “LC50, HF” value [3] is reported as 92 µg.
FC(F)(F)c1ccc(Oc2ccc(COC(=Nc3ccc(Cl)cc3)C(Cl)Cl)cc2)nc1 [Compound 453] was tested, and the “LC50, CL” value [2] was 0.1% and the “LC50, HF” value [3] was over 100 µg.
In the case of CC(C)C(=Nc1ccc(F)c(Cl)c1)OC(F)c1cccc(Oc2ccc(F)cc2)c1 (stereo not shown) [Compound 502], the “LC50, HF” value [3] is reported as 80 µg.
For CC(C)C(=Nc1ccc(OC(F)(F)F)cc1)OCc1cccc(Cc2ccccc2)c1 [Compound 542], the “LC50, CL” value [2] was over 0.01% and the “LC50, HF” value [3] was over 100 µg.
